Measurements from US10085449B2, “N-[1-((6-chloropyridin-3-yl)methyl)pyridin-2(1H)-ylidene]-2,2,2- trifluoroacetamide for control of agricultural/horticultural pests” (priority 2010, dated 2018).
Read-outs that look alike come from different tables or passages of the source.

Key:
Assay in all cases: whole plant or invertebrate
Assay type in all cases: in vivo
[1] = test system: cotton aphid; conditions: Aphis gossypii, foliar
Experimental: (§1) Leaf discs 2.0 cm in diameter were cut from cucumber plants grown in pots, and these were sprayed with solutions of the inventive compounds at a predetermined concentration prepared to 50% acetone/water (containing 0.05% Tween 20). The treated leaf discs were air dried, following which first-instar larvae were released onto the discs. The leaf discs and larvae were then held in an incubation chamber at 25° C. (16-hour period of light, 8-hour dark period). Three days after released, the numbers of live and dead insects were counted, and the mortality was calculated from the following formula. This was a two-replication test. Mortality (%)=[number of dead insects/(number of live insects+number of dead insects)]×100

[2] = test system: common cutworm; conditions: for Insecticidal effects (mortality), common cutworm third-instar larvae: foliar application; for mortality at 500 ppm: foliar, 72 h
Experimental: as §1, with “5.0” for “2.0”, “cabbage” for “cucumber”, “third-instar” for “first-instar”

[3] = test system: rice leaf bug; conditions: foliar, 72 h
Experimental: The treated seedlings were air-dried, then each was placed in a glass cylinder and two second-instar rice leaf bug larvae were released within the same glass cylinder. Following release of the insects, the tube was capped and held in an incubation chamber at 25° C. (16-hour period of light, 8-hour dark period). […] Three days after released, the numbers of live and dead insects were counted, and the mortality was calculated from the following formula. Mortality (%)=[number of dead insects/(number of live insects+number of dead insects)]×100

[4] = test system: diamondback moth; conditions: Plutella xylostella, foliar
Experimental: as §1, with “5.0” for “2.0”, “cabbage” for “cucumber”, “second-instar” for “first-instar”

[5] = test system: western flower thrips; conditions: Frankliniella occidentalis, foliar
Experimental: as §1, with “2.8” for “2.0”, “bean” for “cucumber”

[6] = test system: small brown planthopper; conditions: Laodelphax striatellus, in Triticum aestivum, 96 h
Experimental: Wheat seedling roots 48 hours after sowing were treated with solutions of the inventive compounds at a predetermined concentration prepared to 10% acetone/water. After allowing the roots to absorb the chemical for 72 hours, ten second-instar small brown planthopper larvae were released onto each seedling. The treated seedlings and larvae were then held in an incubation chamber at 25° C. (16-hour period of light, 8-hour dark period). Four days after released, the numbers of live and dead insects were counted, and the mortality was calculated from the following formula. The test was carried out as two replications. Mortality (%)=[number of dead insects/(number of live insects+number of dead insects)]×100

[7] = test system: small brown planthopper; conditions: Laodelphax striatellus, foliar
Experimental: as §1, with “Rice seedlings” for “Leaf discs 2.0 cm in diameter were cut from cucumber plants”, “pots” for “pots, and these”, “subjected to the foliar application of” for “sprayed with”, “seedlings” for “leaf discs”, “second-instar” for “first-instar”, “seedlings.” for “discs.”

[8] = test system: small brown planthopper; conditions: Laodelphax striatellus, 72 h; for pest or weed control at 0.005 mg/pot / pest or weed control at 0.01 mg/pot / pest or weed control at 0.05 mg/pot: rice soil drenching, read-out: Small brown planthopper (rice soil drenching), effect; for pest or weed control at 0.005 mg/pot: 0.005 mg/pot (Table 13); for pest or weed control at 0.01 mg/pot: 0.01 mg/pot (Table 13); for pest or weed control at 0.05 mg/pot: 0.05 mg/pot (Table 13); for mortality at 0.05 mg/seedling / mortality at 0.005 mg/pot / mortality at 0.01 mg/pot / mortality at 0.05 mg/pot: soil; for mortality at 0.005 mg/pot / mortality at 0.01 mg/pot / mortality at 0.05 mg/pot: read-out: Insecticidal effects (mortality), small brown planthopper second-instar larvae
Experimental: Rice seedlings grown in pots were subjected to soil drenching treatment with solutions of the inventive compounds at a predetermined concentration prepared to 10% acetone/water. Three days following treatment, ten second-instar small brown planthopper larvae were released onto each seedling. The treated seedlings and larvae were then held in an incubation chamber at 25° C. (16-hour period of light, 8-hour dark period). Three days after released, the numbers of live and dead insects were counted, and the mortality was calculated from the following formula. The test was carried out as two replications. Mortality (%)=[number of dead insects/(number of live insects+number of dead insects)]×100

[9] = read-out: Insecticidal effects (mortality), cotton aphid first-instar larvae
[10] = read-out: Insecticidal effects (mortality), diamondback moth second-instar larvae
[11] = read-out: Insecticidal effects (mortality), western flower thrips first-instar larvae
[12] = read-out: Insecticidal effects (mortality), small brown planthopper second-instar larvae

O=C(N=c1ccccn1Cc1cnc(Cl)c(F)c1)C(F)(F)F [Compound 227, N-[1-((6-chloro-5-fluoropyridin-3-yl)methyl)pyridin-2(1H)-ylidene]-2,2,2-trifluoroacetamide]
mortality at 1.25 ppm [1, 9]: 95%
mortality at 5 ppm [1, 9]: 100%
mortality at 20 ppm [1, 9]: 100%
mortality at 100 ppm [1, 9]: 100%
mortality at 500 ppm [1, 9]: 100%
mortality at 20 ppm ([1]; in Cucumis sativus, 72 h): ≥ 80%
mortality at 100 ppm ([1]; in Cucumis sativus, 72 h): ≥ 80%
mortality at 500 ppm ([1]; in Cucumis sativus, 72 h): ≥ 80%
Insecticidal effects (mortality), common cutworm third-instar larvae ([2]; 100 ppm): 56
Insecticidal effects (mortality), common cutworm third-instar larvae ([2]; 500 ppm): 100
mortality at 500 ppm [2]: ≥ 80%
mortality at 50 ppm [3]: ≥ 80%
mortality at 20 ppm [4, 10]: 100%
mortality at 100 ppm [4, 10]: 100%
mortality at 500 ppm [4, 10]: 100%
mortality at 100 ppm ([4]; in Brassica oleracea, 72 h): ≥ 80%
mortality at 500 ppm ([4]; in Brassica oleracea, 72 h): ≥ 80%
mortality at 500 ppm ([5]; 72 h): ≥ 80%
mortality at 100 ppm [5, 11]: 65%
mortality at 500 ppm [5, 11]: 90%
mortality at 20 µg/seedling [6]: ≥ 80%
mortality at 0.5 mg/seedling [6, 12]: 50%
mortality at 2 mg/seedling [6, 12]: 75%
mortality at 20 mg/seedling [6, 12]: 100%
mortality at 5 ppm [7, 12]: 100%
mortality at 100 ppm ([7]; in Oryza sativa, 72 h): ≥ 80%
pest or weed control at 0.005 mg/pot [8]: 75%
pest or weed control at 0.01 mg/pot [8]: 100%
pest or weed control at 0.05 mg/pot [8]: 90%
mortality at 0.05 mg/seedling [8]: ≥ 80%
mortality at 0.005 mg/pot [8]: 75%
mortality at 0.01 mg/pot [8]: 100%
mortality at 0.05 mg/pot [8]: 90%

O=C(N=c1ccccn1Cc1ccc(Br)nc1)C(F)(F)F [Compound 231, N-[1-((6-bromopyridin-3-yl)methyl)pyridin-2(1H)-ylidene]-2,2,2-trifluoroacetamide]
mortality at 1.25 ppm [1, 9]: 74%
mortality at 5 ppm [1, 9]: 100%
mortality at 20 ppm [1, 9]: 100%
mortality at 20 ppm ([1]; in Cucumis sativus, 72 h): ≥ 80%
Insecticidal effects (mortality), common cutworm third-instar larvae ([2]; 100 ppm): 0
Insecticidal effects (mortality), common cutworm third-instar larvae ([2]; 500 ppm): 0
mortality at 50 ppm [3]: ≥ 80%
mortality at 20 ppm [4, 10]: 100%
mortality at 100 ppm [4, 10]: 100%
mortality at 100 ppm ([4]; in Brassica oleracea, 72 h): ≥ 80%
mortality at 500 ppm ([5]; 72 h): ≥ 80%
mortality at 100 ppm [5, 11]: 55%
mortality at 500 ppm [5, 11]: 85%
mortality at 20 µg/seedling [6]: ≥ 80%
mortality at 0.5 mg/seedling [6, 12]: 25%
mortality at 2 mg/seedling [6, 12]: 75%
mortality at 20 mg/seedling [6, 12]: 100%
mortality at 100 ppm [7, 12]: 100%
pest or weed control at 0.005 mg/pot [8]: 70%
pest or weed control at 0.01 mg/pot [8]: 100%
pest or weed control at 0.05 mg/pot [8]: 100%
mortality at 0.05 mg/seedling [8]: ≥ 80%
mortality at 0.005 mg/pot [8]: 70%
mortality at 0.01 mg/pot [8]: 100%
mortality at 0.05 mg/pot [8]: 100%

O=C(N=c1ccccn1Cc1ccc(Cl)nc1)C(F)(F)Cl [Compound 239, 2-chloro-N-[1-((6-chloropyridin-3-yl)methyl)pyridin-2(1H)-ylidene]-2,2-difluoroacetamide]
mortality at 20 ppm [1, 9]: 100%
mortality at 100 ppm [1, 9]: 100%
mortality at 500 ppm [1, 9]: 100%
mortality at 20 ppm ([1]; in Cucumis sativus, 72 h): ≥ 80%
mortality at 100 ppm ([1]; in Cucumis sativus, 72 h): ≥ 80%
mortality at 500 ppm ([1]; in Cucumis sativus, 72 h): ≥ 80%
Insecticidal effects (mortality), common cutworm third-instar larvae ([2]; 500 ppm): 90
mortality at 500 ppm [2]: ≥ 80%
mortality at 50 ppm [3]: ≥ 80%
mortality at 20 ppm [4, 10]: 100%
mortality at 100 ppm [4, 10]: 100%
mortality at 500 ppm [4, 10]: 100%
mortality at 100 ppm ([4]; in Brassica oleracea, 72 h): ≥ 80%
mortality at 500 ppm ([4]; in Brassica oleracea, 72 h): ≥ 80%
mortality at 500 ppm [5, 11]: 40%
mortality at 20 µg/seedling [6]: ≥ 80%
mortality at 0.25 mg/seedling [6, 12]: 100%
mortality at 0.5 mg/seedling [6, 12]: 100%
mortality at 2 mg/seedling [6, 12]: 100%
mortality at 20 mg/seedling [6, 12]: 100%
pest or weed control at 0.005 mg/pot [8]: 30%
pest or weed control at 0.01 mg/pot [8]: 80%
pest or weed control at 0.05 mg/pot [8]: 100%
mortality at 0.05 mg/seedling [8]: ≥ 80%
mortality at 0.005 mg/pot [8]: 30%
mortality at 0.01 mg/pot [8]: 80%
mortality at 0.05 mg/pot [8]: 100%

O=C(N=c1ccccn1Cc1ccc(Cl)nc1)C(F)(F)C(F)(F)F [Compound 242, N-[1-((6-chloropyridin-3-yl)methyl)pyridin-2(1H)-ylidene]-2,2,3,3,3-pentafluoropropanamide]
mortality at 1.25 ppm [1, 9]: 35%
mortality at 5 ppm [1, 9]: 80%
mortality at 20 ppm [1, 9]: 100%
mortality at 100 ppm [1, 9]: 100%
mortality at 20 ppm ([1]; in Cucumis sativus, 72 h): ≥ 80%
mortality at 100 ppm ([1]; in Cucumis sativus, 72 h): ≥ 80%
Insecticidal effects (mortality), common cutworm third-instar larvae ([2]; 500 ppm): 60
mortality at 50 ppm [3]: ≥ 80%
mortality at 100 ppm [4, 10]: 100%
mortality at 500 ppm [4, 10]: 100%
mortality at 100 ppm ([4]; in Brassica oleracea, 72 h): ≥ 80%
mortality at 500 ppm ([4]; in Brassica oleracea, 72 h): ≥ 80%
mortality at 500 ppm ([5]; 72 h): ≥ 80%
mortality at 100 ppm [5, 11]: 76%
mortality at 500 ppm [5, 11]: 100%
mortality at 0.5 mg/seedling [6, 12]: 100%
mortality at 2 mg/seedling [6, 12]: 100%
mortality at 20 mg/seedling [6, 12]: 100%
pest or weed control at 0.05 mg/pot [8]: 100%
mortality at 0.05 mg/seedling [8]: ≥ 80%
mortality at 0.05 mg/pot [8]: 100%

O=C(N=c1ccccn1Cc1cnc(Cl)nc1)C(F)(F)F [Compound 243, N-[1-((2-chloropyrimidin-5-yl)methyl)pyridin-2(1H)-ylidene]-2,2,2-trifluoroacetamide]
mortality at 1.25 ppm [1, 9]: 80%
mortality at 5 ppm [1, 9]: 100%
mortality at 100 ppm [1, 9]: 100%
mortality at 500 ppm [1, 9]: 100%
mortality at 20 ppm ([1]; in Cucumis sativus, 72 h): ≥ 80%
mortality at 100 ppm ([1]; in Cucumis sativus, 72 h): ≥ 80%
mortality at 500 ppm ([1]; in Cucumis sativus, 72 h): ≥ 80%
Insecticidal effects (mortality), common cutworm third-instar larvae ([2]; 500 ppm): 10
mortality at 50 ppm [3]: ≥ 80%
mortality at 100 ppm [4, 10]: 100%
mortality at 500 ppm [4, 10]: 100%
mortality at 100 ppm ([4]; in Brassica oleracea, 72 h): ≥ 80%
mortality at 500 ppm ([4]; in Brassica oleracea, 72 h): ≥ 80%
mortality at 500 ppm ([5]; 72 h): ≥ 80%
mortality at 500 ppm [5, 11]: 100%
mortality at 0.5 mg/seedling [6, 12]: 100%
mortality at 2 mg/seedling [6, 12]: 100%
mortality at 20 mg/seedling [6, 12]: 100%
pest or weed control at 0.05 mg/pot [8]: 100%
mortality at 0.05 mg/seedling [8]: ≥ 80%
mortality at 0.05 mg/pot [8]: 100%
